Test results reported in US20220380473A1, “ANTI-GAL3 ANTIBODIES AND USES THEREOF” (TrueBinding, Inc., priority 2019, published 2022).

Key:
Gal9 binding to TIM-3 = biological target: T1, Gal9 binding to TIM-3 (Homo sapiens, UniProt O00182); experiment: Sugar-dependence ELISA, hGal9 coated plate and mouse TIM-3 Fc
T1 construct: purchased R&D systems

[1] = biological target: T2, interaction between Gal3 and TIM-3 (Mus musculus, UniProt P16110); experiment: Blocking ELISA, mouse Gal3 coated plate and mouse TIM-3 Fc; assay type: binding; conditions: mGal3 coated plate, mouse TIM-3 Fc
T2 construct: purchased BioLegend (mouse Gal3); R&D systems (mouse TIM-3 Fc)
Protocol: ELISA assays were also performed to test the interaction between Gal3 and TIM-3. 96 well ELISA plates (ThermoFisher Scientific) were coated with mouse Gal3 protein (BioLegend, San Diego, Calif.) in PBS or human Gal9 protein (R&D systems) in PBS or phosphatidylserine (PS) (Sigma) in ethanol and incubated at 4° C. for overnight. The plate was washed three times with TBST and then blocked with PBS buffer containing 2% BSA at room temperature for 1 hour. In FIG. 5A, different anti Gal3 antibodies, i.e. mGal3 polyclonal antibody (R&D systems), mAb IMT001 (also described in WO 2019/023247, hereby expressly incorporated by reference in its entirety), mAb M3/38 (Thermofisher Scientific) (FIG. 5A), were added to well that has been coated with Gal3. The antibodies were incubated for 10 minutes and mouse TIM-3 Fc were then added to the plates and incubated for an additional one-hour incubation. Plates were then washed for three times and followed by incubation with anti-human-IgG-HRP (Jackson ImmunoResearch) for 1 h at room temperature. The color was developed with TMB subtract (GeneTex, Irvine, Calif.) after three time washes with TBST and the reaction was terminated with 1N HCl. The optical density (OD) was read at 450 nm. The results were expressed as the average OD of duplicates±SD. […]

T1 sequence (O00182 whole entry): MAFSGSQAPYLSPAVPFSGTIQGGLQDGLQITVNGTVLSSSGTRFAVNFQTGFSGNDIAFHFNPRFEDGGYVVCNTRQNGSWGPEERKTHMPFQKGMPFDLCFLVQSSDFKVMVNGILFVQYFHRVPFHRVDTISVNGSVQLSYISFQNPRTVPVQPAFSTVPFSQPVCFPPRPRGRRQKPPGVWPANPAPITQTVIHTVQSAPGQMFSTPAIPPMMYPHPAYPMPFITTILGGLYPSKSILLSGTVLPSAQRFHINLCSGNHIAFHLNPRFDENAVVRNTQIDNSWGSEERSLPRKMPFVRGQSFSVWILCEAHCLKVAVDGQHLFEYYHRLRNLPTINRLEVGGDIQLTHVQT
T2 sequence (P16110 2-264 limits assumed): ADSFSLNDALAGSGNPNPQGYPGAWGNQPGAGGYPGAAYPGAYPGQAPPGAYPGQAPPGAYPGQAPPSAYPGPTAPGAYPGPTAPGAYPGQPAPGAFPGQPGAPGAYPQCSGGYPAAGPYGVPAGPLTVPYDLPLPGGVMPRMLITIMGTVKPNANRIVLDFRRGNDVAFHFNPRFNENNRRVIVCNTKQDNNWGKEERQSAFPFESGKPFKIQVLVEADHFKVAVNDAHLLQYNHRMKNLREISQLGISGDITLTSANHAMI

SMILES: OC[C@H]1O[C@@H](O[C@H]2[C@H](O)[C@@H](O)[C@@H](O)O[C@@H]2CO)[C@H](O)[C@@H](O)[C@H]1O [lactose, α-Lactose, reference compound]
- reduction in signal, Gal9-TIM-3 binding (Gal9 binding to TIM-3; 25 mM α-Lactose present vs absent): more than 10 fold
- block of Gal9 binding to TIM-3 (Gal9 binding to TIM-3; 25 mM α-Lactose, hGal9 coated plate): blocked
- block of Gal3 binding to TIM-3 [1]: minimal
